In PubChem BioAssay AID1963977 (Molecular Pharmacology Branch, DTP, NCI, 2024):
pIC50: −log10 of the molar value. Where “and” joins values, the source holds several entries; their conditions need not be identical. Equal entries are not always repeated.

Test system: 624824-186-R-J3-PDC multicell spheroids, viability
Test: Anticancer human tumor 624824-186-R-J3-PDC patient-derived colon adenocarcinoma cell line growth inhibition [PI3K]
Details: for viability, T/C: stronger effect = lower value
Method in brief: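 Combination activity was assessed by viability in multicellular tumor spheroids carrying HUVEC and MSC components. Agents were tested with PI3K inhibitors from a Cmax-based top dose (or 10 microM) downward in half-log increments.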

[1] = curve of first compound, second compound 0.0316 µM
[2] = curve of first compound, second compound 0.1 µM
[3] = curve of first compound, second compound 0.316 µM
[4] = curve of first compound, second compound 1 µM
[5] = curve of first compound, second compound 3.16 µM
[6] = curve of first compound, second compound 10 µM
[7] = second compound 0.0316 µM, first compound 0.0316 µM
[8] = second compound 0.0316 µM, first compound 0.1 µM
[9] = second compound 0.0316 µM, first compound 0.316 µM
[10] = second compound 0.0316 µM, first compound 1 µM
[11] = second compound 0.0316 µM, first compound 3.16 µM
[12] = second compound 0.0316 µM, first compound 10 µM
[13] = second compound 0.1 µM, first compound 0.0316 µM
[14] = second compound 0.1 µM, first compound 0.1 µM
[15] = second compound 0.1 µM, first compound 0.316 µM
[16] = second compound 0.1 µM, first compound 1 µM
[17] = second compound 0.1 µM, first compound 3.16 µM
[18] = second compound 0.1 µM, first compound 10 µM
[19] = second compound 0.316 µM, first compound 0.0316 µM
[20] = second compound 0.316 µM, first compound 0.1 µM
[21] = second compound 0.316 µM, first compound 0.316 µM
[22] = second compound 0.316 µM, first compound 1 µM
[23] = second compound 0.316 µM, first compound 3.16 µM
[24] = second compound 0.316 µM, first compound 10 µM
[25] = second compound 1 µM, first compound 0.0316 µM
[26] = second compound 1 µM, first compound 0.1 µM
[27] = second compound 1 µM, first compound 0.316 µM
[28] = second compound 1 µM, first compound 1 µM
[29] = second compound 1 µM, first compound 3.16 µM
[30] = second compound 1 µM, first compound 10 µM
[31] = second compound 3.16 µM, first compound 0.0316 µM
[32] = second compound 3.16 µM, first compound 0.1 µM
[33] = second compound 3.16 µM, first compound 0.316 µM
[34] = second compound 3.16 µM, first compound 1 µM
[35] = second compound 3.16 µM, first compound 3.16 µM
[36] = second compound 3.16 µM, first compound 10 µM
[37] = second compound 10 µM, first compound 0.0316 µM
[38] = second compound 10 µM, first compound 0.1 µM
[39] = second compound 10 µM, first compound 0.316 µM
[40] = second compound 10 µM, first compound 1 µM
[41] = second compound 10 µM, first compound 3.16 µM
[42] = second compound 10 µM, first compound 10 µM
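Note: spheroids exposed to agents for seven days before luminescence read.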
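Throughout, for viability, T/C: luminescent signal used as a stand-in for spheroid viability; percent viability relative to DMSO vehicle control wells taken as 100%.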

CC(C)NCC(C(=O)N1CCN(c2ncnc3c2C(C)CC3O)CC1)c1ccc(Cl)cc1 (stereo not drawn) + Cc1nc(NC(=O)N2CCCC2C(N)=O)sc1-c1ccnc(C(C)(C)C(F)(F)F)c1
pIC50 [1]: 5.27
pIC50 [2]: 5.29
pIC50 [3]: 5.34
pIC50 [4]: 5.55
pIC50 [5]: 5.69
pIC50 [6]: 5.85
viability, T/C [7]: 108%
viability, T/C [8]: 108%
viability, T/C [9]: 99%
viability, T/C [10]: 78.2%
viability, T/C [11]: 59.8%
viability, T/C [12]: 39.7%
viability, T/C [13]: 107%
viability, T/C [14]: 92.8%
viability, T/C [15]: 93.2%
viability, T/C [16]: 77.1%
viability, T/C [17]: 53.2%
viability, T/C [18]: 43.2%
viability, T/C [19]: 104%
viability, T/C [20]: 104%
viability, T/C [21]: 91.1%
viability, T/C [22]: 75.8%
viability, T/C [23]: 53.3%
viability, T/C [24]: 41.9%
viability, T/C [25]: 95.5%
viability, T/C [26]: 105%
viability, T/C [27]: 86.8%
viability, T/C [28]: 72.6%
viability, T/C [29]: 46.5%
viability, T/C [30]: 39.5%
viability, T/C [31]: 86.8%
viability, T/C [32]: 77.4%
viability, T/C [33]: 79.8%
viability, T/C [34]: 59%
viability, T/C [35]: 44.2%
viability, T/C [36]: 32.1%
viability, T/C [37]: 68.1%
viability, T/C [38]: 64.9%
viability, T/C [39]: 70.8%
viability, T/C [40]: 52.5%
viability, T/C [41]: 41.2%
viability, T/C [42]: 32.8%

C[C@@H](NC(=O)c1ncnc(N)c1Cl)c1ncc(C(=O)Nc2cc(C(F)(F)F)c(Cl)cn2)s1
viability, T/C (compound 0.0316 µM): 103% and 100% and 120%
viability, T/C (compound 0.1 µM): 96.1% and 93.2% (2×)
viability, T/C (compound 0.316 µM): 99.7% and 104% and 102%
viability, T/C (compound 1 µM): 99.9% and 97.9% and 107%
viability, T/C (compound 3.16 µM): 94.9% and 98.1% and 99.8%
viability, T/C (compound 10 µM): 89.5% and 97.3% and 104%
pIC50 (curve of compound): < 5.00

CNC(=O)c1ccc(N2C(=S)N(c3ccc(C#N)c(C(F)(F)F)c3)C(=O)C2(C)C)cc1F + CC(Nc1ncnc2nc[nH]c12)c1cc2cccc(Cl)c2c(=O)n1-c1ccccc1
pIC50 [1]: < 5.00
pIC50 [2]: < 5.00
pIC50 [3]: < 5.00
pIC50 [4]: < 5.00
pIC50 [5]: < 5.00
pIC50 [6]: < 5.00
viability, T/C [7]: 107%
viability, T/C [8]: 102%
viability, T/C [9]: 110%
viability, T/C [10]: 97.1%
viability, T/C [11]: 92.8%
viability, T/C [12]: 102%
viability, T/C [13]: 97.7%
viability, T/C [14]: 101%
viability, T/C [15]: 104%
viability, T/C [16]: 108%
viability, T/C [17]: 106%
viability, T/C [18]: 116%
viability, T/C [19]: 96.6%
viability, T/C [20]: 93.3%
viability, T/C [21]: 105%
viability, T/C [22]: 94.2%
viability, T/C [23]: 105%
viability, T/C [24]: 117%
viability, T/C [25]: 98.8%
viability, T/C [26]: 101%
viability, T/C [27]: 107%
viability, T/C [28]: 117%
viability, T/C [29]: 104%
viability, T/C [30]: 101%
viability, T/C [31]: 100%
viability, T/C [32]: 100%
viability, T/C [33]: 112%
viability, T/C [34]: 91.5%
viability, T/C [35]: 108%
viability, T/C [36]: 107%
viability, T/C [37]: 99.1%
viability, T/C [38]: 95.2%
viability, T/C [39]: 100%
viability, T/C [40]: 88.1%
viability, T/C [41]: 93.2%
viability, T/C [42]: 97.9%

Cn1ncnc1[C@H]1c2n[nH]c(=O)c3cc(F)cc(c23)N[C@@H]1c1ccc(F)cc1 + COc1c(OCCCN2CCOCC2)ccc2c3n(c(=NC(=O)c4cnc(N)nc4)nc12)CCN3
pIC50 (curve of first compound, second compound 0.00316 µM): < 7.00
pIC50 (curve of first compound, second compound 0.01 µM): < 7.00
pIC50 [1]: < 7.00
pIC50 [2]: < 7.00
pIC50 [3]: > 9.50
pIC50 [4]: > 9.50
viability, T/C (second compound 0.00316 µM, first compound 0.000316 µM): 103%
viability, T/C (second compound 0.00316 µM, first compound 0.001 µM): 97.5%
viability, T/C (second compound 0.00316 µM, first compound 0.00316 µM): 102%
viability, T/C (second compound 0.00316 µM, first compound 0.01 µM): 96.3%
viability, T/C (second compound 0.00316 µM, first compound 0.0316 µM): 90.1%
viability, T/C (second compound 0.00316 µM, first compound 0.1 µM): 102%
viability, T/C (second compound 0.01 µM, first compound 0.000316 µM): 115%
viability, T/C (second compound 0.01 µM, first compound 0.001 µM): 110%
viability, T/C (second compound 0.01 µM, first compound 0.00316 µM): 102%
viability, T/C (second compound 0.01 µM, first compound 0.01 µM): 93.1%
viability, T/C (second compound 0.01 µM, first compound 0.0316 µM): 97.1%
viability, T/C (second compound 0.01 µM, first compound 0.1 µM): 107%
viability, T/C (second compound 0.0316 µM, first compound 0.000316 µM): 91.1%
viability, T/C (second compound 0.0316 µM, first compound 0.001 µM): 103%
viability, T/C (second compound 0.0316 µM, first compound 0.00316 µM): 88.5%
viability, T/C (second compound 0.0316 µM, first compound 0.01 µM): 90.8%
viability, T/C [7]: 87.2%
viability, T/C [8]: 97.3%
viability, T/C (second compound 0.1 µM, first compound 0.000316 µM): 77.1%
viability, T/C (second compound 0.1 µM, first compound 0.001 µM): 76%
viability, T/C (second compound 0.1 µM, first compound 0.00316 µM): 83.1%
viability, T/C (second compound 0.1 µM, first compound 0.01 µM): 73.3%
viability, T/C [13]: 75.3%
viability, T/C [14]: 71%
viability, T/C (second compound 0.316 µM, first compound 0.000316 µM): 48.3%
viability, T/C (second compound 0.316 µM, first compound 0.001 µM): 48.3%
viability, T/C (second compound 0.316 µM, first compound 0.00316 µM): 54%
viability, T/C (second compound 0.316 µM, first compound 0.01 µM): 44.9%
viability, T/C [19]: 48.7%
viability, T/C [20]: 46%
viability, T/C (second compound 1 µM, first compound 0.000316 µM): 27.3%
viability, T/C (second compound 1 µM, first compound 0.001 µM): 28%
viability, T/C (second compound 1 µM, first compound 0.00316 µM): 30.1%
viability, T/C (second compound 1 µM, first compound 0.01 µM): 25.9%
viability, T/C [25]: 23.9%
viability, T/C [26]: 27%
